# Results: article PMC5472064 (Organic & biomolecular chemistry, 2017)
# Where two headings read alike, the source gives them in different places.
# Biological target: p97 ATPase WT (Homo sapiens, UniProt P55072)
# Assay: ADPGlo biochemical assay of p97 ATPase inhibition
# Settings: for effect of structural change on activity/potency (in words): p97 inhibition, versus indole NH / amide analogs
# p97 ATPase WT, sequence (P55072 whole entry): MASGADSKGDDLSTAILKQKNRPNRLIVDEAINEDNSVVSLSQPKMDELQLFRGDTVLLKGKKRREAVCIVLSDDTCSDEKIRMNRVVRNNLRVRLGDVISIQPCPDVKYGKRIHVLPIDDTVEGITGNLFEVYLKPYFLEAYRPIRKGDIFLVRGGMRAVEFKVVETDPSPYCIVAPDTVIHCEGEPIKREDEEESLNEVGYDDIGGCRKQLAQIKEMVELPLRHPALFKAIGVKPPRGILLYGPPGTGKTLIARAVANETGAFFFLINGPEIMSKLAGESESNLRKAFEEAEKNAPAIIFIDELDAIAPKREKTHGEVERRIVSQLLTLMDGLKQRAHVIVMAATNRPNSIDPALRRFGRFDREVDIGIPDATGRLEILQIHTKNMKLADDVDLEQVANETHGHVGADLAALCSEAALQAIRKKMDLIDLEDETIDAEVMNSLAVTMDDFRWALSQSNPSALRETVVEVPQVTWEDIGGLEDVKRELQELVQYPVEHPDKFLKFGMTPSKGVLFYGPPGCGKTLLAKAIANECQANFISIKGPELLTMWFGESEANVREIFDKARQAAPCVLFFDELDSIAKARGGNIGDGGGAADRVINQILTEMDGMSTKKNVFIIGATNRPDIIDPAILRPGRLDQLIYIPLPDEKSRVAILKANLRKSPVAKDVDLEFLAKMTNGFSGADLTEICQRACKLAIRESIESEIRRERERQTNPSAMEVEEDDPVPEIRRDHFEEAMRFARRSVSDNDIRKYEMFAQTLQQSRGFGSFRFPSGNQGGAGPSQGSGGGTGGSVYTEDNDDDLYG
SMILES,IC50 [nM],other results
"CC(C)N1CCN(CCNC2CCN(c3cccc(-c4cc5ccccc5n4C)c3)CC2)CC1 [UPCDC30201, N-(2-(4-Isopropylpiperazin-1-yl)ethyl)-1-(3-(1-methyl-1H-indol-2-yl)phenyl)piperidin-4-amine]",> 50000,effect of structural change on activity/potency (in words): ablates
"CC(C)N1CCN(CCNC2CCN(c3ccc4c(c3)-c3[nH]c5ccccc5c3CC4)CC2)CC1 [UPCDC30206, 1-(6,11-Dihydro-5H-benzo[a]carbazol-2-yl)-N-(2-(4-isopropylpiperazin-1-yl)ethyl)piperidin-4-amine]",390,
"CC(C)N1CCN(CCNC2CCN(c3cccc(-c4ccc5ccccc5c4)c3)CC2)CC1 [UPCDC30222, N-(2-(4-Isopropylpiperazin-1-yl)ethyl)-1-(3-(naphthalen-2-yl)phenyl)piperidin-4-amine]",5200,effect of structural change on activity/potency (in words): greatly diminishes
CC(C)N1CCN(CCNC2CCN(c3cccc(-c4cc5cc(F)ccc5[nH]4)c3)CC2)CC1 [UPCDC30245],,"IC50 (read-out: ADPGlo IC50, 20 nM p97 ATPase WT, 100 μM ATP, repeated multiple times): 55 nM"
"CC(C)N1CCN(CCNC2CCN(c3cccc(-c4nc5ccccc5[nH]4)c3)CC2)CC1 [UPCDC30250, 1-(3-(1H-Benzo[d]imidazol-2-yl)phenyl)-N-(2-(4-isopropylpiperazin-1-yl)ethyl)piperidin-4-amine]",38500,reduction of binding affinity (benzimidazole versus indole): > 2 orders of magnitude
"CC(C)N1CCN(CCNC2CCN(c3cccc(-c4cc5cc(C(N)=O)ccc5[nH]4)c3)CC2)CC1 [UPCDC30310, 2-(3-(4-((2-(4-Isopropylpiperazin-1-yl)ethyl)amino)piperidin-1-yl)phenyl)-1H-indole-5-carboxamide]",100,
"CC(C)N1CCN(CCNC2CCN(c3cccc(-c4cc5cc(Cl)ccc5[nH]4)c3)CC2)CC1 [UPCDC30317, 1-(3-(5-Chloro-1H-indol-2-yl)phenyl)-N-(2-(4-isopropylpiperazin-1-yl)ethyl)piperidin-4-amine]",190,
"COC(=O)c1ccc2[nH]c(-c3cccc(N4CCC(NCCN5CCN(C(C)C)CC5)CC4)c3)cc2c1 [UPCDC30341, Methyl 2-(3-(4-((2-(4-isopropylpiperazin-1-yl)ethyl)amino)piperidin-1-yl)phenyl)-1H-indole-5-carboxylate]",130,
"CC(C)N1CCN(CCNC2CCN(c3cccc(-c4cc5cnccc5[nH]4)c3)CC2)CC1 [UPCDC30345, 1-(3-(1H-Pyrrolo[3,2-c]pyridin-2-yl)phenyl)-N-(2-(4-isopropylpiperazin-1-yl)ethyl)piperidin-4-amine]",4000,
"Cc1ccc(N2CCC(NCCN3CCN(C(C)C)CC3)CC2)cc1-c1cc2cc(F)ccc2[nH]1 [UPCDC30346, 1-(3-(5-Fluoro-1H-indol-2-yl)-4-methylphenyl)-N-(2-(4-isopropylpiperazin-1-yl)ethyl)piperidin-4-amine]",50,
"Cc1ccc(N2CCC(NCCN3CCN(C(C)C)CC3)CC2)cc1-c1cc2cc(C#N)ccc2[nH]1 [UPCDC30361, 2-(5-(4-((2-(4-Isopropylpiperazin-1-yl)ethyl)amino)piperidin-1-yl)-2-methylphenyl)-1H-indole-5-carbonitrile]",87,
"CNC(=O)c1ccc2[nH]c(-c3cccc(N4CCC(NCCN5CCN(C(C)C)CC5)CC4)c3)cc2c1 [UPCDC30367, 2-(3-(4-((2-(4-Isopropylpiperazin-1-yl)ethyl)amino)piperidin-1-yl)phenyl)-N-methyl-1H-indole-5-carboxamide]",450,
"CC(C)N1CCN(CCNC2CCN(c3cccc(-c4cc5cc(C(=O)N(C)C)ccc5[nH]4)c3)CC2)CC1 [UPCDC30368, 2-(3-(4-((2-(4-Isopropylpiperazin-1-yl)ethyl)amino)piperidin-1-yl)phenyl)-N,N-dimethyl-1H-indole-5-carboxamide]",,effect of structural change on activity/potency (in words): near loss of all potency
"CC(C)N1CCN(CCNC2CCN(c3cccc(-c4cc5cc(F)cnc5[nH]4)c3)CC2)CC1 [UPCDC30381, 1-(3-(5-Fluoro-1H-pyrrolo[2,3-b]pyridin-2-yl)phenyl)-N-(2-(4-isopropylpiperazin-1-yl)ethyl)piperidin-4-amine]",4740,
